{"source": "ChEMBL document CHEMBL3132769", "about": "“Fragment growing to retain or alter the selectivity of anchored kinase hinge-binding fragments” (Medchemcomm, 2014)", "key": {"[1]": {"molecular_target": "T1, Cytoplasmic tyrosine-protein kinase BMX (Homo sapiens) (UniProt P51813)", "T1 sequence (whole entry)": "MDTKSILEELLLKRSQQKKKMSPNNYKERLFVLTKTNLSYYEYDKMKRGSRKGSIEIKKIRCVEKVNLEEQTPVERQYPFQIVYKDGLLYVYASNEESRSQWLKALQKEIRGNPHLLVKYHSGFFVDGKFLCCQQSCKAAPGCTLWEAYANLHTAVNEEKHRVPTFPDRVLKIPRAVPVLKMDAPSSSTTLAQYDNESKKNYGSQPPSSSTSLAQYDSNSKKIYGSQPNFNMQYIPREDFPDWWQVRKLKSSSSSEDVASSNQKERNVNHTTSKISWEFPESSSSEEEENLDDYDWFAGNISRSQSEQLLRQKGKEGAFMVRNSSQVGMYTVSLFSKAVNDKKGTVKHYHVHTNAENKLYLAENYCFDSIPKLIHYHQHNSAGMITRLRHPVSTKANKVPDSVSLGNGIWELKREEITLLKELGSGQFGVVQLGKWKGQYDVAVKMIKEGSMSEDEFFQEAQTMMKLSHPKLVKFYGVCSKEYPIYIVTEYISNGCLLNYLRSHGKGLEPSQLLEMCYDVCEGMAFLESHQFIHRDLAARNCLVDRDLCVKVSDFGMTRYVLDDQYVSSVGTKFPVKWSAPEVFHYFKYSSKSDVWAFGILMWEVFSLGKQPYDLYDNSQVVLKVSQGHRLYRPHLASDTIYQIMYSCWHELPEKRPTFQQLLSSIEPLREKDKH", "assay": "Inhibition of human full length BMX expressed in baculovirus assessed as substrate phosphorylation using fluorescence-labelled peptides as substrate at 0.06 uM after 90 mins by microfluidic peptide phosphorylation assay"}, "[2]": {"molecular_target": "MAP/microtubule affinity-regulating kinase 3 (Homo sapiens) (UniProt P27448)", "sequence (P27448 whole entry, looked up)": "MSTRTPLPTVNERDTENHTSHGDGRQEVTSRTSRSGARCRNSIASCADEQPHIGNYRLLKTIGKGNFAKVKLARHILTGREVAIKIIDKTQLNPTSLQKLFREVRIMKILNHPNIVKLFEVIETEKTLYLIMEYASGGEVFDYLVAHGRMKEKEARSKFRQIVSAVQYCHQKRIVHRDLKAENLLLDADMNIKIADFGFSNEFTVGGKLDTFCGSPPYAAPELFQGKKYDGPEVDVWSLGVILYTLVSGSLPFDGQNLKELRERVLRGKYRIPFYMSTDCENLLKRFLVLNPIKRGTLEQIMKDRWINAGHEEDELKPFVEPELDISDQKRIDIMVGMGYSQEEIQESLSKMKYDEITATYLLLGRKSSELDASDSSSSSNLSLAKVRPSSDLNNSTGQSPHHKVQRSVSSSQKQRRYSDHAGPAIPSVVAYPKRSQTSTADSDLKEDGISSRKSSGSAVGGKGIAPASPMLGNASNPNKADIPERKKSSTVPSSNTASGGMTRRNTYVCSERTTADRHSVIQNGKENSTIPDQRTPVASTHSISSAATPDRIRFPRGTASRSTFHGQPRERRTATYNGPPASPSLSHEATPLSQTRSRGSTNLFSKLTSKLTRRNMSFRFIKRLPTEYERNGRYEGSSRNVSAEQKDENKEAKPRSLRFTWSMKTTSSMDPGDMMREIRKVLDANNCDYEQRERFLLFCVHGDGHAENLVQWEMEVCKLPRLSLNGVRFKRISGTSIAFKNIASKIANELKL", "assay": "Inhibition of human full length c-TAK1 expressed in Escherichia coli cell assessed as substrate phosphorylation using fluorescence-labelled peptides as substrate at 0.06 uM after 90 mins by microfluidic peptide phosphorylation assay"}, "[3]": {"molecular_target": "T2, Serine/threonine-protein kinase Sgk3 (Homo sapiens) (UniProt Q96BR1)", "T2 sequence (whole entry)": "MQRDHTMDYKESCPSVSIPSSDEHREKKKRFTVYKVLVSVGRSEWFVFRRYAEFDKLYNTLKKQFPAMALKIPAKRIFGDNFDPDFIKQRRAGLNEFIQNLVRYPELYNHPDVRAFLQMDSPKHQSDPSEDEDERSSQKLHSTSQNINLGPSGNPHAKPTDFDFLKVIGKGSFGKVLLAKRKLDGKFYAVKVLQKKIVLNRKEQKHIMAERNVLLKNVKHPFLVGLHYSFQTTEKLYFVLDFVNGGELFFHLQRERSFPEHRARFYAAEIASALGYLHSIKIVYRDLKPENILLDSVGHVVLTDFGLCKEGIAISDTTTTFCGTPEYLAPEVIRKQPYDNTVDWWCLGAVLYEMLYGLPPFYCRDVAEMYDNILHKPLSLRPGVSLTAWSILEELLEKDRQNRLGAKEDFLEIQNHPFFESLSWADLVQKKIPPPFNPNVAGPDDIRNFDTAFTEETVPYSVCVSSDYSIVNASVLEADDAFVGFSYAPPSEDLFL", "assay": "Inhibition of human full length SGK3 expressed in baculovirus assessed as substrate phosphorylation using fluorescence-labelled peptides as substrate at 0.2 uM after 90 mins by microfluidic peptide phosphorylation assay"}, "[4]": {"molecular_target": "T3, Serine/threonine-protein kinase BRSK1 (Homo sapiens) (UniProt Q8TDC3)", "T3 sequence (whole entry)": "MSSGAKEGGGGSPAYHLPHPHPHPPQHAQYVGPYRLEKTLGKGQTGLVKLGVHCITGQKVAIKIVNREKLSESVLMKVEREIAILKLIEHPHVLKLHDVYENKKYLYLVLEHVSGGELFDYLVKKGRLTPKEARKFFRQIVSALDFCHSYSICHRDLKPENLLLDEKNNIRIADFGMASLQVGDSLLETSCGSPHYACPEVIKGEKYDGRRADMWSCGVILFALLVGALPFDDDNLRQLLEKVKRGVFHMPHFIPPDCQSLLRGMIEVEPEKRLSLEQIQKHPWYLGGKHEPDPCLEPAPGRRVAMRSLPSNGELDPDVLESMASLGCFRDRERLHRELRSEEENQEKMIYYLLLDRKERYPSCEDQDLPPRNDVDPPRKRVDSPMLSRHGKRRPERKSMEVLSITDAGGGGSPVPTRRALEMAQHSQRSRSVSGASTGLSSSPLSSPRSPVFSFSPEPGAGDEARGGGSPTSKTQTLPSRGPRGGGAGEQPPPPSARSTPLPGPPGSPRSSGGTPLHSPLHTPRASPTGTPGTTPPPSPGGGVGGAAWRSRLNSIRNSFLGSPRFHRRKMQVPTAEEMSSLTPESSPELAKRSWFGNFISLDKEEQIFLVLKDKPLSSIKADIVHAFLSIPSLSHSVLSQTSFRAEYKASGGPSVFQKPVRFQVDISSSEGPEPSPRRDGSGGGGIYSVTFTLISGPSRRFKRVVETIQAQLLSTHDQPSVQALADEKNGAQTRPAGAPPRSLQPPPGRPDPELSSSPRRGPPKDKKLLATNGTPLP", "assay": "Inhibition of human full length BRSK1 expressed in baculovirus assessed as substrate phosphorylation using fluorescence-labelled peptides as substrate at 420 uM after 90 mins by microfluidic peptide phosphorylation assay"}, "[5]": {"molecular_target": "Serine/threonine-protein kinase MARK2 (Homo sapiens) (UniProt Q7KZI7)", "sequence (Q7KZI7 whole entry)": "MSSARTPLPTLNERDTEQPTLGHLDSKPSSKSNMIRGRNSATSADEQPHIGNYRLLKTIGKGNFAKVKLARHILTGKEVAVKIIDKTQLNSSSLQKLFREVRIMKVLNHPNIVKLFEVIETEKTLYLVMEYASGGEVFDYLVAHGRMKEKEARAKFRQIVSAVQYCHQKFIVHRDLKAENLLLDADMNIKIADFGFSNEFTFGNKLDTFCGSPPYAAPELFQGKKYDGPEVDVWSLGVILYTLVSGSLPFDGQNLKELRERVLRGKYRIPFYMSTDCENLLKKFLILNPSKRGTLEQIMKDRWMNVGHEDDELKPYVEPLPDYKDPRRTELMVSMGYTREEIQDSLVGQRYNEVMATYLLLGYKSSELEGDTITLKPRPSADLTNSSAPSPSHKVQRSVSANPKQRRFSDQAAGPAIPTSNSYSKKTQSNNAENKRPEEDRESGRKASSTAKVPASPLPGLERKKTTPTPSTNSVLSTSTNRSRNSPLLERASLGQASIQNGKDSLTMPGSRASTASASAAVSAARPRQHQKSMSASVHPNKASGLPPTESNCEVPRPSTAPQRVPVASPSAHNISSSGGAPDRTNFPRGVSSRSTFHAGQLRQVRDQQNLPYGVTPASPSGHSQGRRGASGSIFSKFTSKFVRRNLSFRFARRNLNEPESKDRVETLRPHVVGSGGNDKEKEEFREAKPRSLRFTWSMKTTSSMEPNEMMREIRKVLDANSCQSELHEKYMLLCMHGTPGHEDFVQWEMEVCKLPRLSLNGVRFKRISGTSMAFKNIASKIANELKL", "assay": "Inhibition of human full length MARK2 expressed in baculovirus assessed as substrate phosphorylation using fluorescence-labelled peptides as substrate at 0.1 uM after 90 mins by microfluidic peptide phosphorylation assay"}, "[6]": {"molecular_target": "Fibroblast growth factor receptor 1 (Homo sapiens) (UniProt P11362)", "sequence (P11362 22-822 limits assumed)": "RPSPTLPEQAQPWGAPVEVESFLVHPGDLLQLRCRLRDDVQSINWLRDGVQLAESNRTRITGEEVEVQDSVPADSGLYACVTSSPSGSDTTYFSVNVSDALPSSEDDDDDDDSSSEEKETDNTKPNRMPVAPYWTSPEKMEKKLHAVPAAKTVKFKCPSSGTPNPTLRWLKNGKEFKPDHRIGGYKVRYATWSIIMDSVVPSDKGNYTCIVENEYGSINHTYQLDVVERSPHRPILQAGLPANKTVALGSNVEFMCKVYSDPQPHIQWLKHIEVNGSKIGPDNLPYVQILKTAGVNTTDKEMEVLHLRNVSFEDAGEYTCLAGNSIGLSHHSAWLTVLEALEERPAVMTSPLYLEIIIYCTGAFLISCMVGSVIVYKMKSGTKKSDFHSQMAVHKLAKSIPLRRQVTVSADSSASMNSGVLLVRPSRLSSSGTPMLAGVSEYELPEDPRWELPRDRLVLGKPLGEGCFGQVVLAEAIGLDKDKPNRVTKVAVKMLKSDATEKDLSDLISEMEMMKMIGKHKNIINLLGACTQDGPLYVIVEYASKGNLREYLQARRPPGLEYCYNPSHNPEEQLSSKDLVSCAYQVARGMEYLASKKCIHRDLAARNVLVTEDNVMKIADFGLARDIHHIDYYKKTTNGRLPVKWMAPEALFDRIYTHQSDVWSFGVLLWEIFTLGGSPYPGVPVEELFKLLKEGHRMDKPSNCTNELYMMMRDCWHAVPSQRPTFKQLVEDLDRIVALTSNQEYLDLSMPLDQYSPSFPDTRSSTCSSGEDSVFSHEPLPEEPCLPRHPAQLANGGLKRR", "assay": "Inhibition of human FGFR1 catalytic domain expressed in baculovirus assessed as substrate phosphorylation using fluorescence-labelled peptides as substrate at 0.1 uM after 90 mins by microfluidic peptide phosphorylation assay"}, "[7]": {"molecular_target": "T4, Mitogen-activated protein kinase 13 (Homo sapiens) (UniProt O15264)", "T4 sequence (whole entry)": "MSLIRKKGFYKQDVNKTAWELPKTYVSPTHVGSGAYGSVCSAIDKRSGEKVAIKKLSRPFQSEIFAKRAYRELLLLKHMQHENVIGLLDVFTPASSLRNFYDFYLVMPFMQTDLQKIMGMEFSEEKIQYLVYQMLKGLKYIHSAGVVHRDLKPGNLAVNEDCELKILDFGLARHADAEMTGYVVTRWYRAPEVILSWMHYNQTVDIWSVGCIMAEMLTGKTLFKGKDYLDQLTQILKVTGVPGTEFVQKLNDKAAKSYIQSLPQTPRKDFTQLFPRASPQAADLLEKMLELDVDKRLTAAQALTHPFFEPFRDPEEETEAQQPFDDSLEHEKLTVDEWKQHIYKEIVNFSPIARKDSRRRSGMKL", "assay": "Inhibition of human full length p38 delta expressed in Escherichia coli cell assessed as substrate phosphorylation using fluorescence-labelled peptides as substrate at 0.1 uM after 90 mins by microfluidic peptide phosphorylation assay"}, "[8]": {"molecular_target": "Rho-associated protein kinase 2 (Homo sapiens) (UniProt O75116)", "sequence (O75116 whole entry, looked up)": "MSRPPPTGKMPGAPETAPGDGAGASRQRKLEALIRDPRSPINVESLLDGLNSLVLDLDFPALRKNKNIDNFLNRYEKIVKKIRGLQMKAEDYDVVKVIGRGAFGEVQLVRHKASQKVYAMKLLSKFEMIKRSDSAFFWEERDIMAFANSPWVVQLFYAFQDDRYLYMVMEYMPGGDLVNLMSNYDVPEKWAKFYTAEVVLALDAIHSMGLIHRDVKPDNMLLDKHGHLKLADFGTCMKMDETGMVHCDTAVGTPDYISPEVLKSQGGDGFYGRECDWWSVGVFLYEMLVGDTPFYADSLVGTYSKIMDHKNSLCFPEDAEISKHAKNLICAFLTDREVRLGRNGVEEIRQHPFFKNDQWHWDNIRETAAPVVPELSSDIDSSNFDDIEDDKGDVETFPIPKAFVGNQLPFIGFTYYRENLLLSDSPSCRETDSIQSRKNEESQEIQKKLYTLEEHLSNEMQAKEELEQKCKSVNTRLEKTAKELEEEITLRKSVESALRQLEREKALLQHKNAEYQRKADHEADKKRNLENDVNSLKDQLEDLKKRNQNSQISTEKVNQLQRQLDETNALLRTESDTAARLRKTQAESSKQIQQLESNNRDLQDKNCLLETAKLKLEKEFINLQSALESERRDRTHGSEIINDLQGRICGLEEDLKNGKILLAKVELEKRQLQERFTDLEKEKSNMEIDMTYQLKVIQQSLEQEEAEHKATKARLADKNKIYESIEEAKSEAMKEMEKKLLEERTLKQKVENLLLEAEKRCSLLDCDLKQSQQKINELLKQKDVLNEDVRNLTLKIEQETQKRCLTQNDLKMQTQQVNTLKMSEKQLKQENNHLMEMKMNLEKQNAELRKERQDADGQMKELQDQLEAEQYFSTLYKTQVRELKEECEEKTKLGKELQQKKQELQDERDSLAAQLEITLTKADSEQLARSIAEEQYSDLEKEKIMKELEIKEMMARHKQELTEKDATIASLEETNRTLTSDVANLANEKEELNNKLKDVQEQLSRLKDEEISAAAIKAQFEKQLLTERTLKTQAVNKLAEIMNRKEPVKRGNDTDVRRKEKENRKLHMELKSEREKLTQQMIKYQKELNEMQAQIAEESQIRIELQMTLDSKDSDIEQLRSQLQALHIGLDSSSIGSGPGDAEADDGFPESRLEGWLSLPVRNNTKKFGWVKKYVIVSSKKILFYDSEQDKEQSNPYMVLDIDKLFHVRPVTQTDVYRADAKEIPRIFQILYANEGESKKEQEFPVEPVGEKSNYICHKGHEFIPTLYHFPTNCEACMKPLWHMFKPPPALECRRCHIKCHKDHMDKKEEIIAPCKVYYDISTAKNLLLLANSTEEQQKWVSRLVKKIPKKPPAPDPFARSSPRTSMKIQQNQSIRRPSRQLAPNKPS", "settings": "0.1 uM", "description": "Inhibition of human ROCK2 catalytic domain expressed in baculovirus assessed as substrate phosphorylation using fluorescence-labelled peptides as substrate at 0.1 uM after 90 mins by microfluidic peptide phosphorylation assay"}}, "data": [{"compound": "NC1(Cc2ccc(Cl)cc2)CCN(c2ncnc3[nH]ccc23)CC1", "values": [{"measurement": "inhibition", "setting": "[1]", "value": 0, "unit": "%"}, {"measurement": "inhibition", "setting": "[2]", "value": 0, "unit": "%"}]}, {"compound": "Clc1ccc(C2(c3ccc(-c4ncnc5[nH]cnc45)cc3)CCNCC2)cc1", "values": [{"measurement": "inhibition", "setting": "[3]", "value": 41, "unit": "%"}]}, {"compound": "c1nc(N2CCOCC2)c2nc[nH]c2n1", "values": [{"measurement": "inhibition", "setting": "[4]", "value": 51.5, "unit": "%"}]}, {"compound": "C[C@H](CN(C)C)Oc1nc(Nc2cc3cccc(Cl)c3cn2)cnc1C#N", "values": [{"measurement": "inhibition", "setting": "[5]", "value": 2, "unit": "%"}, {"measurement": "inhibition", "setting": "[6]", "value": 2.5, "unit": "%"}, {"measurement": "inhibition", "setting": "[7]", "value": 2.5, "unit": "%"}, {"measurement": "inhibition", "setting": "[8]", "value": 0, "unit": "%"}]}]}
